Experimental findings from patent US7741354B2, “Inhibitors of glutaminyl cyclase” (Probiodrug AG, priority 2006, dated 2010) are described below.

Read-outs that look alike come from different tables or passages of the source.

This test has as its target hQC (Homo sapiens, UniProt Q16769). In words: Fluorometric (fluorescent) assay of hQC inhibition, IC50. The test is classed as biochemical. Conditions: read-out: IC50. The method, then:
All compounds were immediately tested regarding their activity as hQC inhibitors.
The purity of the compounds was determined by HPLC-MS. The IC50 value against hQC was measured using the fluorescent assay.
All measurements were performed with a BioAssay Reader HTS-7000Plus for microplates (Perkin Elmer) at 30° C. QC activity was evaluated fluorometrically using H-Gln-βNA. The samples consisted of 0.2 mM fluorogenic substrate, 0.25 U pyroglutamyl aminopeptidase (Unizyme, Horsholm, Denmark) in 0.2 M Tris/HCl, pH 8.0 containing 20 mM EDTA and an appropriately diluted aliquot of QC in a final volume of 250 μl. Excitation/emission wavelengths were 320/410 nm. The assay reactions were initiated by addition of glutaminyl cyclase. QC activity was determined from a standard curve of β-naphthylamine under assay conditions. One unit is defined as the amount of QC catalyzing the formation of 1 μmol pGlu-βNA from H-Gln-βNA per minute under the described conditions.
In a second fluorometric assay, QC was activity determined using H-Gln-AMC as substrate. Reactions were carried out at 30° C. utilizing the NOVOStar reader for microplates (BMG labtechnologies). The samples consisted of varying concentrations of the fluorogenic substrate, 0.1 U pyroglutamyl aminopeptidase (Qiagen) in 0.05 M Tris/HCl, pH 8.0 containing 5 mM EDTA and an appropriately diluted aliquot of QC in a final volume of 250 μl. Excitation/emission wavelengths were 380/460 nm. The assay reactions were initiated by addition of glutaminyl cyclase. QC activity was determined from a standard curve of 7-amino-4-methylcoumarin under assay conditions. The kinetic data were evaluated using GraFit sofware.
For inhibitor testing, the sample composition was the same as described above, except of the putative inhibitory compound added. For a rapid test of QC-inhibition, samples contained 4 mM of the respective inhibitor and a substrate concentration at 1 KM. For detailed investigations of the inhibition and determination of Ki-values, influence of the inhibitor on the auxiliary enzymes was investigated first. […] The inhibitory constant was evaluated by fitting the set of progress curves to the general equation for competitive inhibition using GraFit software.

Usually IC50 stands for the concentration needed to halve the response being measured.

Sequence of hQC (Q16769 29-361): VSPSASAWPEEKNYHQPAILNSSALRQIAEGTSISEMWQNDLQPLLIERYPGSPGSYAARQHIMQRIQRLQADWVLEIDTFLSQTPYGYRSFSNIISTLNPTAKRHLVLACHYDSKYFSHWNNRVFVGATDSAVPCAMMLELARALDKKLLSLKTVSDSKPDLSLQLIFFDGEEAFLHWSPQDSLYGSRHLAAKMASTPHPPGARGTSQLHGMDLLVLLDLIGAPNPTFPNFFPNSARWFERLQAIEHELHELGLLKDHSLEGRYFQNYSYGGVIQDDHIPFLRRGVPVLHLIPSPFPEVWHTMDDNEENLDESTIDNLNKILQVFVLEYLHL

As to `Clc1ccc(Cn2nnnc2[C@H](NCCCn2ccnc2)C2CCC=CO2)cc1` (stereo partly drawn) [compound 9, {(S)-[1-(4-Chloro-benzyl)-1H-tetrazol-5-yl]-3,4-dihydro-2H-pyran-2-yl-methyl}-(3-imidazol-1-yl-propyl)-amine], the IC50 was found to be 4.9 µM.
On the same count and under the same terms, then `Cc1ccc(C(NCCCn2ccnc2)c2nnnn2Cc2ccc(Cl)cc2)cc1C` (stereo not shown) [compound 2, [[1-(4-Chloro-benzyl)-1H-tetrazol-5-yl]-(3,4-dimethyl-phenyl)-methyl]-(3-imidazol-1-yl-propyl)-amine], with 6.7 µM.
As to `CC1(C)OCC(Cn2nnnc2C(Nc2ccc3[nH]cnc3c2)c2cnc3ccccc3c2)O1` (stereo not shown) [compound 156, (1H-Benzoimidazol-5-yl)-{[1-(2,2-dimethyl-[1,3]dioxolan-4-ylmethyl)-1H-tetrazol-5-yl]-quinolin-3-yl-methyl}-amine], the IC50 (hQC inhibition) was determined as 4.9 µM.
Same read-out and setting: then `Cc1ccc(C(Nc2ccc3[nH]cnc3c2)c2nnnn2CCCN2CCCC2=O)cc1C` (stereo not shown) [compound 164, 1-(3-{5-[(1H-Benzoimidazol-5-ylamino)-(3,4-dimethyl-phenyl)-methyl]-tetrazol-1-yl}-propyl)-pyrrolidin-2-one], with 4.9 µM.
As to `CC(C)(C)Cn1nnnc1C(NCCCn1ccnc1)c1ccc2ccccc2n1` (stereo not shown) [compound 66, {[1-(2,2-Dimethyl-propyl)-1H-tetrazol-5-yl]-quinolin-2-yl-methyl}-(3-imidazol-1-yl-propyl)-amine], the IC50 is 3.1 µM.
With `COCCn1nnnc1C(NCCCn1ccnc1)c1ccc2ccccc2n1` (stereo not shown) [compound 42, (3-Imidazol-1-yl-propyl)-{[1-(2-methoxy-ethyl)-1H-tetrazol-5-yl]-quinolin-2-yl-methyl}-amine], the IC50 amounted to 5.8 µM.
For `Brc1ccc(C(Nc2ccc3[nH]cnc3c2)c2nnnn2Cc2cccnc2)cc1` (stereo not shown) [compound 201, (1H-Benzoimidazol-5-yl)-[(4-bromo-phenyl)-(1-pyridin-3-ylmethyl-1H-tetrazol-5-yl)-methyl]-amine], the IC50 (hQC inhibition) worked out at 4 µM.
Take `Clc1ccc(Cn2nnnc2C(Nc2ccc3[nH]cnc3c2)c2ccc3c(c2)OCO3)cc1` (stereo not shown) [compound 160, {Benzo[1,3]dioxol-5-yl-[1-(4-chloro-benzyl)-1H-tetrazol-5-yl]-methyl}-(1H-benzoimidazol-5-yl)-amine]: for the setting “hQC inhibition”, the IC50 came out at 0.4 µM.
On the same count and under the same terms, under `Brc1cc(Br)cc(C(Nc2ccc3[nH]cnc3c2)c2nnnn2Cc2ccccc2)c1` (stereo not shown) [compound 190, (1H-Benzoimidazol-5-yl)-[(1-benzyl-1H-tetrazol-5-yl)-(3,5-dibromo-phenyl)-methyl]-amine] stands 1.3 µM.
`CCCCn1nnnc1C(NCCCn1ccnc1)c1ccc2cccc(O)c2n1` (stereo not shown) [compound 20, 2-[(1-Butyl-1H-tetrazol-5-yl)-(3-imidazol-1-yl-propylamino)-methyl]-quinolin-8-ol]: the IC50 amounted to 2.2 µM.
Still for that read-out and setting: then `COCCn1nnnc1C(NCCCn1ccnc1)c1cc(C)ccc1O` (stereo not shown) [compound 39, 2-{(3-Imidazol-1-yl-propylamino)-[1-(2-methoxy-ethyl)-1H-tetrazol-5-yl]-methyl}-4-methyl-phenol], with 8.5 µM.
For the compound `c1ccc(C(c2ccccc2)n2nnnc2C(Nc2ccc3[nH]cnc3c2)c2cccnc2)cc1` (stereo not shown) [compound 158, [(1-Benzhydryl-1H-tetrazol-5-yl)-pyridin-3-yl-methyl]-(1H-benzoimidazol-5-yl)-amine], the IC50 (hQC inhibition) was determined as 9.4 µM.
Regarding `C1=CCC(C(Nc2ccc3[nH]cnc3c2)c2nnnn2CCc2cccs2)CC1` (stereo not shown) [compound 167, (1H-Benzoimidazol-5-yl)-{cyclohex-3-enyl-[1-(2-thiophen-2-yl-ethyl)-1H-tetrazol-5-yl]-methyl}-amine], the IC50 (hQC inhibition) is 8.5 µM.
On the same count and under the same terms, then `Brc1ccc(C(Nc2ccc3[nH]cnc3c2)c2nnnn2-c2ccccc2OCc2ccccc2)cc1` (stereo not shown) [compound 203, (1H-Benzoimidazol-5-yl)-[[1-(2-benzyloxy-phenyl)-1H-tetrazol-5-yl]-(4-bromo-phenyl)-methyl]-amine], with 2.2 µM.
Turning to `CCOC(=O)C1CCCCC1n1nnnc1C(Nc1ccc2[nH]cnc2c1)c1ccc(Cl)cc1` (stereo not shown) [compound 94], the IC50 is 9.4 µM.
Turning to `CN(C)c1ccc(C(Nc2ccc3[nH]cnc3c2)c2nnnn2Cc2cccnc2)cc1` (stereo not shown) [compound 115, (1H-Benzoimidazol-5-yl)-[(4-dimethylamino-phenyl)-(1-pyridin-3-ylmethyl-1H-tetrazol-5-yl)-methyl]-amine], the IC50 (hQC inhibition) came out at 5.8 µM.
On to `c1cn(CCCNC(c2ccc3[nH]ccc3c2)c2nnnn2C[C@@H]2CCCO2)cn1` (stereo partly drawn) [compound 13, (3-Imidazol-1-yl-propyl)-((1H-indol-5-yl)-{1-[(S)-1-(tetrahydro-furan-2-yl)methyl]-1H-tetrazol-5-yl}-methyl)-amine], for which the IC50 is 6.7 µM.
With `Oc1cccc(C(Nc2ccc3[nH]cnc3c2)c2nnnn2CC2CCCO2)c1` (stereo not shown) [compound 152], the IC50 (hQC inhibition) is 9.4 µM.
Still for that read-out and setting: then `COc1ccc(C(Nc2ccc3[nH]cnc3c2)c2nnnn2-c2ccccc2OCc2ccccc2)cc1` (stereo not shown) [compound 210, (1H-Benzoimidazol-5-yl)-[[1-(2-benzyloxy-phenyl)-1H-tetrazol-5-yl]-(4-methoxy-phenyl)-methyl]-amine], with 2.2 µM.
As to `Cc1cc(C)c(C(NCCCn2ccnc2)c2nnnn2C[C@@H]2CCCO2)cc1C` (stereo partly drawn) [compound 17, (3-Imidazol-1-yl-propyl)-[{1-[(S)-1-(tetrahydro-furan-2-yl)methyl]-1H-tetrazol-5-yl}-(2,4,5-trimethyl-phenyl)-methyl]-amine], the IC50 was determined as 4 µM.
Still for that read-out and setting: under `CC(C)(C)n1nnnc1C(NCCCn1ccnc1)c1ccc2cccc(O)c2n1` (stereo not shown) [compound 60, 2-[(1-tert-Butyl-1H-tetrazol-5-yl)-(3-imidazol-1-yl-propylamino)-methyl]-quinolin-8-ol] stands 0.4 µM.
In the case of `CSc1ccc(C(Nc2ccc3[nH]cnc3c2)c2nnnn2CC2COC(C)(C)O2)cc1` (stereo not shown) [compound 130, (1H-Benzoimidazol-5-yl)-[[1-(2,2-dimethyl-[1,3]dioxolan-4-ylmethyl)-1H-tetrazol-5-yl]-(4-methylsulfanyl-phenyl)-methyl]-amine], the IC50 (hQC inhibition) turned out to be 7.6 µM.
Take `CCOC(=O)C1CCCCC1n1nnnc1C(Nc1ccc2[nH]cnc2c1)c1ccc(Cl)c(F)c1` (stereo not shown) [compound 84]: the IC50 stood at 6.7 µM.
With `C=CCn1nnnc1C(NCCCn1ccnc1)c1cc(C)ccc1O` (stereo not shown) [compound 44, 2-[(1-Allyl-1H-tetrazol-5-yl)-(3-imidazol-1-yl-propylamino)-methyl]-4-methyl-phenol], the IC50 was determined as 4.9 µM.
As to `c1ccc(-c2ccc(C(Nc3ccc4[nH]cnc4c3)c3nnnn3CCc3cccs3)cc2)nc1` (stereo not shown) [compound 211, (1H-Benzoimidazol-5-yl)-{(4-pyridin-2-yl-phenyl)-[1-(2-thiophen-2-yl-ethyl)-1H-tetrazol-5-yl]-methyl}-amine], the IC50 (hQC inhibition) stood at 2.2 µM.
With `O=c1c(C(Nc2ccc3[nH]cnc3c2)c2nnnn2CCc2cccs2)coc2ccccc12` (stereo not shown) [compound 122, 3-{(1H-Benzoimidazol-5-ylamino)-[1-(2-thiophen-2-yl-ethyl)-1H-tetrazol-5-yl]-methyl}-chromen-4-one], under “hQC inhibition”, the IC50 came out at 4.9 µM.
In the case of `CCOC(=O)C1CCCCC1n1nnnc1C(Nc1ccc2[nH]cnc2c1)c1ccc(C)c(C)c1` (stereo not shown) [compound 155], under “hQC inhibition”, the IC50 came out at 4.9 µM.
In the case of `COC(=O)Cn1nnnc1C(NCCCn1ccnc1)C1CC1` (stereo not shown) [compound 57, {5-[Cyclopropyl-(3-imidazol-1-yl-propylamino)-methyl]-tetrazol-1-yl}-acetic methyl ester], the IC50 amounted to 0.4 µM.
For the compound `OCc1ccc(C(Nc2ccc3[nH]cnc3c2)c2nnnn2Cc2ccc(Cl)cc2)o1` (stereo not shown) [compound 121, (5-{(1H-Benzoimidazol-5-ylamino)-[1-(4-chloro-benzyl)-1H-tetrazol-5-yl]-methyl}-furan-2-yl)-methanol], for the setting “hQC inhibition”, the IC50 was 4.9 µM.
Consider `CCOC(=O)C1CCCCC1n1nnnc1C(Nc1ccc2[nH]cnc2c1)c1cc(C)cc(C)c1` (stereo not shown) [compound 157], for which, under “hQC inhibition”, the IC50 is 5.8 µM.
As to `C=CCn1nnnc1C(NCCCn1ccnc1)c1cc(C)c(C)cc1C` (stereo not shown) [compound 48, [(1-Allyl-1H-tetrazol-5-yl)-(2,4,5-trimethyl-phenyl)-methyl]-(3-imidazol-1-yl-propyl)-amine], the IC50 is 9.4 µM.
Regarding `CCCCn1nnnc1C(NCCCn1ccnc1)c1ccc(Cl)c(Cl)c1` (stereo not shown) [compound 18, [(1-Butyl-1H-tetrazol-5-yl)-(3,4-dichloro-phenyl)-methyl]-(3-imidazol-1-yl-propyl)-amine], the half-inhibitory concentration (IC50) was 7.6 µM.
Same read-out and setting: under `COC(=O)Cn1nnnc1C(NCCCn1ccnc1)c1ccc(OC)c(O)c1` (stereo not shown) [compound 58, {5-[(3-Hydroxy-4-methoxy-phenyl)-(3-imidazol-1-yl-propylamino)-methyl]-tetrazol-1-yl}-acetic methyl ester] stands 4 µM.
With `O=[N+]([O-])c1cc(C(Nc2ccc3[nH]cnc3c2)c2nnnn2CC2CCCO2)ccc1Cl` (stereo not shown) [compound 146], under “hQC inhibition”, the IC50 was found to be 3.1 µM.
